Source: patent US20120157439A1, “RAF INHIBITOR COMPOUNDS AND METHODS OF USE THEREOF” (GENENTECH, INC., priority 2009, published 2012)
Read-outs that look alike come from different tables or passages of the source.

Target: T1, V600E full-length B-Raf (Homo sapiens, UniProt P15056, V600E)
T1 construct: 1 μM FSBA-MEK and 20 nM V600E full-length B-Raf; made in house; host or cells: sf9 insect cells (baculovirus)
Assay: B-Raf IC50 Assay (B-RAF V600E inhibition assay, Example A)
Assay type: biochemical
Source text: Determining the activity of Raf in the sample is possible by a number of direct and indirect detection methods (US 2004/0082014). Activity of human recombinant B-Raf protein may be assessed in vitro by assay of the incorporation of radio labeled phosphate to recombinant MAP kinase (MEK), a known physiologic substrate of B-Raf, according to US 2004/0127496 and WO 03/022840. The activity/inhibition of V600E full-length B-Raf was estimated by measuring the incorporation of radio labeled phosphate from [γ-33P]ATP into FSBA-modified wild-type MEK (see Example A).
Activity of human recombinant B-Raf protein may be assessed in vitro by assay of the incorporation of radio labeled phosphate to recombinant MAP kinase (MEK), a known physiologic substrate of B-Raf, according to U.S. Patent Appl. Publication No. 2004/0127496 and WO 03/022840. Catalytically active human recombinant B-Raf protein is obtained by purification from sf9 insect cells infected with a human B-Raf recombinant baculovirus expression vector.
The activity/inhibition of V600E full-length B-Raf was estimated by measuring the incorporation of radio labeled phosphate from [γ-33P]ATP into FSBA-modified wild-type MEK. The […] assay mixtures contained 25 mM Na Pipes, pH 7.2, 100 mM KCl, 10 mM MgCl2, 5 mM β-glycerophosphate, 100 μM Na Vanadate, 4 μM ATP, 500 nCi [γ-33P]ATP, 1 μM FSBA-MEK and 20 nM V600E full-length B-Raf. Incubations were carried out at 22° C. in a Costar 3365 plate (Corning). Prior to the assay, the B-Raf and FSBA-MEK were preincubated together in assay buffer at 1.5× (20 μL of 30 nM and 1.5 μM, respectively) for 15 minutes, and the assay was initiated by the addition of 10 μL of […]. Following the 60-minute incubation, the assay mixtures were quenched by the addition of 100 μL of 25% TCA, the plate was mixed on a rotary shaker for 1 minute, and the product was captured on a Perkin-Elmer GF/B filter plate using a Tomtec Mach III Harvester. After sealing the bottom of the plate, 35 μL of Bio-Safe II (Research Products International) scintillation cocktail were added to each well and the plate was top-sealed and counted in a Topcount NXT (Packard).

[1] = B-Raf V600E assay of Example A: less than 100 nM, read-out: IC50
[2] = B-Raf V600E assay of Example A: less than about 1 μM, read-out: IC50
[3] = incorporation of radio labeled phosphate from [γ-33P]ATP into FSBA-modified wild-type MEK, 4 μM ATP, 20 nM V600E full-length B-Raf, 60-minute incubation, 22° C., read-out: BRAF V600E IC50

T1 sequence (P15056 whole entry V600E): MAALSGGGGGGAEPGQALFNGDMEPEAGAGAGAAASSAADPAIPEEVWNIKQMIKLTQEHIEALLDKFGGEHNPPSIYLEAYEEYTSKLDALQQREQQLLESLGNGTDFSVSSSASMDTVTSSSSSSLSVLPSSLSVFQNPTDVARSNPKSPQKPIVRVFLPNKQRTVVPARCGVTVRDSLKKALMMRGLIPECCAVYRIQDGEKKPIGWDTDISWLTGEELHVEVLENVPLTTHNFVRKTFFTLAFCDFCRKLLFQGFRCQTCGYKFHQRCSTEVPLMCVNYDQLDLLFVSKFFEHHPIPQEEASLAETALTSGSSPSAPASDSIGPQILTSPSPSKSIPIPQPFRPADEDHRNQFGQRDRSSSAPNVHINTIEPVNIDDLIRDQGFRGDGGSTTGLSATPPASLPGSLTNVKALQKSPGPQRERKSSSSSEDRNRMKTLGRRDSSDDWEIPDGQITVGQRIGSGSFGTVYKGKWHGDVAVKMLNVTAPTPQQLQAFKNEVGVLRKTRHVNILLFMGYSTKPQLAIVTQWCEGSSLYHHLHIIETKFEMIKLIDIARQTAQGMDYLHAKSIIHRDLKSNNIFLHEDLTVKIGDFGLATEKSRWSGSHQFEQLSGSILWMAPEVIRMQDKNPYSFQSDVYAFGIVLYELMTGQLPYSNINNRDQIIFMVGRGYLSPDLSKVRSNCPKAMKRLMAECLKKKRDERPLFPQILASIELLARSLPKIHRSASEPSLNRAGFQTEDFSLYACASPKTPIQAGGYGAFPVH

| SMILES | IC50 [1] [nM] | IC50 [2] [nM] | IC50 [3] [nM] |
| --- | --- | --- | --- |
| CCCS(=O)(=O)Nc1ccc(F)c(NC(=O)c2csc3c(NC(C)C)ncnc23)c1F [Example 50, 4-Isopropyl-amino-thieno [3,2-d] pyrimidine-7-carboxylic acid [2,6-difluoro-3-(propane-1-sulfonylamino)-phenyl]-amide] | < 100 | < 1000 | 36.5 |
| CCCC(C)Nc1ncnc2c(C(=O)Nc3c(F)ccc(NS(=O)(=O)CCC)c3F)csc12 (centres unmarked) [Example 51, 4-(1-Methyl-butylamino)-thieno[3,2-d] pyrimidine-7-carboxylic acid [2,6-difluoro-3-(propane-1-sulfonylamino)-phenyl]-amide] |  | < 1000 | 221 |
| CCCS(=O)(=O)Nc1ccc(F)c(NC(=O)c2csc3c(NCCF)ncnc23)c1F [Example 52, 4-(2-Fluoro-ethylamino)-thieno[3,2-d] pyrimidine-7-carboxylic acid [2,6-difluoro-3-(propane-1-sulfonylamino)-phenyl]-amide] | < 100 | < 1000 | 15.7 |
| CCCS(=O)(=O)Nc1ccc(F)c(NC(=O)c2csc3c(NCC(F)F)ncnc23)c1F [Example 53, 4-(2,2-Difluoro-ethylamino)-thieno[3,2-d] pyrimidine-7-carboxylic acid [2,6-difluoro-3-(propane-1-sulfonylamino)-phenyl]-amide] | < 100 | < 1000 | 26.5 |
| CCCS(=O)(=O)Nc1ccc(F)c(NC(=O)c2csc3c(NC4CCCC4)ncnc23)c1F [Example 54, 4-Cyclopentyl-amino-thieno [3,2-d] pyrimidine-7-carboxylic acid [2,6-difluoro-3-(propane-1-sulfonylamino)-phenyl]-amide] |  | < 1000 | 416 |
| CCCS(=O)(=O)Nc1ccc(F)c(NC(=O)c2csc3c(NC4CCC4)ncnc23)c1F [Example 55, 4-Cyclobutyl-amino-thieno [3,2-d] pyrimidine-7-carboxylic acid [2,6-difluoro-3-(propane-1-sulfonylamino)-phenyl]-amide] | < 100 | < 1000 | 45.5 |
| CCCS(=O)(=O)Nc1ccc(F)c(NC(=O)c2csc3c(NCC4CC4)ncnc23)c1F [Example 56, 4-(Cyclopropyl-methylamino)-thieno[3,2-d] pyrimidine-7-carboxylic acid [2,6-difluoro-3-(propane-1-sulfonylamino)-phenyl]-amide] | < 100 | < 1000 | 75.1 |
| CCCS(=O)(=O)Nc1ccc(F)c(NC(=O)c2csc3c(NCC(C)C)ncnc23)c1F [Example 57, 4-Isobutylamino-thieno[3,2-d] pyrimidine-7-carboxylic acid [2,6-difluoro-3-(propane-1-sulfonylamino)-phenyl]-amide] | < 100 | < 1000 | 12.8 |
| CCCS(=O)(=O)Nc1ccc(F)c(NC(=O)c2csc3c(NCC(C)(C)C)ncnc23)c1F [Example 58, 4-(2,2-Dimethyl-propylamino)-thieno[3,2-d] pyrimidine-7-carboxylic acid [2,6-difluoro-3-(propane-1-sulfonylamino)-phenyl]-amide] |  | < 1000 | 902 |
| CCCS(=O)(=O)Nc1ccc(F)c(NC(=O)c2csc3c(NCCO)ncnc23)c1F [Example 59, 4-(2-Hydroxy-ethylamino)-thieno[3,2-d] pyrimidine-7-carboxylic acid [2,6-difluoro-3-(propane-1-sulfonylamino)-phenyl]-amide] | < 100 | < 1000 | 57.1 |
| CCCS(=O)(=O)Nc1ccc(F)c(NC(=O)c2csc3c(NCCOC)ncnc23)c1F [Example 60, 4-(2-Methoxy-ethylamino)-thieno[3,2-d] pyrimidine-7-carboxylic acid [2,6-difluoro-3-(propane-1-sulfonylamino)-phenyl]-amide] |  | < 1000 | 177 |
| CCCS(=O)(=O)Nc1ccc(F)c(NC(=O)c2csc3c(Nc4cnn(C)c4)ncnc23)c1F [Example 61, 4-(1-Methyl-1H-pyrazol-4-ylamino)-thieno[3,2-d] pyrimidine-7-carboxylic acid [2,6-difluoro-3-(propane-1-sulfonylamino)-phenyl]-amide] | < 100 | < 1000 | 1.7 |
| CCCS(=O)(=O)Nc1ccc(F)c(NC(=O)c2csc3c(Nc4ccccn4)ncnc23)c1F [Example 62, 4-(Pyridin-2-ylamino)-thieno[3,2-d] pyrimidine-7-carboxylic acid [2,6-difluoro-3-(propane-1-sulfonylamino)-phenyl]-amide] | < 100 | < 1000 | 27.1 |
| CCCS(=O)(=O)Nc1ccc(F)c(NC(=O)c2csc3c(Nc4ccccc4)ncnc23)c1F [Example 63, 4-Phenylamino-thieno[3,2-d]pyrimidine-7-carboxylic acid [2,6-difluoro-3-(propane-1-sulfonylamino)-phenyl]-amide] | < 100 | < 1000 | 35.4 |
| O=C(Nc1c(F)ccc(NS(=O)(=O)CCCF)c1F)c1csc2c(NC3CC3)ncnc12 [Example 64, 4-Cyclopropylamino-thieno[3,2-d]pyrimidine-7-carboxylic acid [2,6-difluoro-3-(3-fluoro-propane-1-sulfonylamino)-phenyl]amide] | < 100 | < 1000 | 1.1 |
| CCCS(=O)(=O)Nc1ccc(Cl)c(NC(=O)c2csc3c(NOC)ncnc23)c1Cl [Example 65, 4-Methoxyamino-thieno[3,2-d]pyrimidine-7-carboxylic acid [2,6-dichloro-3-(propane-1-sulfonylamino)-phenyl]amide] | < 100 | < 1000 | 1.2 |
| CCCS(=O)(=O)Nc1ccc(Cl)c(NC(=O)c2csc3c(NC4CC4)ncnc23)c1Cl [Example 66, 4-Cyclopropylamino-thieno[3,2-d]pyrimidine-7-carboxylic acid [2,6-dichloro-3-(propane-1-sulfonylamino)-phenyl]-amide] | < 100 | < 1000 | 0.2 |
| CCCS(=O)(=O)Nc1ccc(Cl)c(NC(=O)c2csc3c(NN4CCOCC4)ncnc23)c1Cl [Example 67, 4-(Morpholin-4-ylamino)-thieno[3,2-d] pyrimidine-7-carboxylic acid [2,6-dichloro-3-(propane-1-sulfonyl-amino)-phenyl]-amide] | < 100 | < 1000 | 0.2 |
| CCCS(=O)(=O)Nc1ccc(Cl)c(NC(=O)c2csc3c(NC4COC4)ncnc23)c1Cl [Example 68, 4-(Oxetan-3-ylamino)-thieno[3,2-d] pyrimidine-7-carboxylic acid [2,6-dichloro-3-(propane-1-sulfonyl-amino)-phenyl]-amide] | < 100 | < 1000 | 1.8 |
| CCCS(=O)(=O)Nc1ccc(Cl)c(NC(=O)c2csc3c(NCC(F)F)ncnc23)c1Cl [Example 69, 4-(2,2-Difluoro-ethylamino)-thieno[3,2-d] pyrimidine-7-carboxylic acid [2,6-dichloro-3-(propane-1-sulfonyl-amino)-phenyl]-amide] | < 100 | < 1000 | 2.2 |
| CCCS(=O)(=O)Nc1ccc(Cl)c(NC(=O)c2csc3c(NC(C)C)ncnc23)c1Cl [Example 70, 4-Isopropyl-amino-thieno [3,2-d] pyrimidine-7-carboxylic acid [2 6-dichloro-3-(propane-1-sulfonyl-amino)-phenyl]-amide] | < 100 | < 1000 | 3.4 |
| CCCS(=O)(=O)Nc1ccc(Cl)c(NC(=O)c2csc3c(NC4CCOC4)ncnc23)c1Cl (centres unmarked) [Example 71, 4-(Tetrahydro-furan-3-ylamino)-thieno[3,2-d] pyrimidine-7-carboxylic acid [2,6-dichloro-3-(propane-1-sulfonyl-amino)phenyl]-amid] | < 100 | < 1000 | 14.4 |
| CCCS(=O)(=O)Nc1ccc(Cl)c(NC(=O)c2csc3c(NC4CCC4)ncnc23)c1Cl [Example 72, 4-Cyclobutyl-amino-thieno [3,2-d] pyrimidine-7-carboxylic acid [2,6-dichloro-3-(propane-1-sulfonyl-amino)-phenyl]-amide] | < 100 | < 1000 | 2.4 |
